In assay [1] the target is T1, recombinant human H3 receptor, expressed in HEK-293 cells (Homo sapiens, UniProt Q9Y5N1).
T1 construct: expressed in transfected cells; host or cells: HEK-293 (human embryonic kidney) cells
Put plainly: H3-receptor binding assay, recombinant human receptor. Particulars: recombinant human receptor assay (HEK-293). The method, then: (§1) General Procedure for H3-Receptor Binding Assay
(§2) The source of the H3 receptors in this experiment was guinea pig brain. Alternatively, the source of H3 receptors was recombinant human receptor, expressed in HEK-293 (human embryonic kidney) cells.
All compounds to be tested were dissolved in DMSO and then diluted into the binding buffer (50 mM Tris, pH 7.5) such that the final concentration was 2 μg/ml with 0.1% DMSO. Membranes were then added (400 μg of protein, 5 μg in the case of recombinant human receptor) to the reaction tubes. The reaction was started by the addition of 3 nM [^3H]R-α-methyl histamine (8.8 Ci/mmol) or 3 nM [^3H]Na^α-methyl histamine (80 Ci/mmol) and continued under incubation at 30° C. for 30 min. Bound ligand was separated from unbound ligand by filtration, and the amount of radioactive ligand bound to the membranes was quantitated by liquid scintillation spectrometry. All incubations were performed in duplicate and the standard error was always less than 10%. Compounds that inhibited more than 70% of the specific binding of radioactive ligand to the receptor were serially diluted to determine a Ki (nM).

The target of assay [2] is T2, H3 receptors (guinea pig brain) (Cavia porcellus, UniProt Q9JI35).
T2 construct: The brain tissue was homogenized with a solution of 50 mM Tris, pH 7.5; from tissue; host or cells: guinea pig brain membranes
T2 sequence (Q9JI35 whole entry): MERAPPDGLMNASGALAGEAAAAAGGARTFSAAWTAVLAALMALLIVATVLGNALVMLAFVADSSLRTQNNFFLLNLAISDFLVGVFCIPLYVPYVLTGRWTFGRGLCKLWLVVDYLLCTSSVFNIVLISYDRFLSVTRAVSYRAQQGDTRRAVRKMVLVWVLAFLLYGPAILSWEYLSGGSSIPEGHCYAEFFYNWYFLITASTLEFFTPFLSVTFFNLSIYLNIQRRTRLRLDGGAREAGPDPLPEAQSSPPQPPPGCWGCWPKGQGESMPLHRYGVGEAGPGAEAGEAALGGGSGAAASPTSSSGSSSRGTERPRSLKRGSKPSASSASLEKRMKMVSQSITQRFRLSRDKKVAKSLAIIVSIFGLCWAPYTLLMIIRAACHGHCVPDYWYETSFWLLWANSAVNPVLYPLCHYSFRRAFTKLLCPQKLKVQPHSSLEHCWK
As to the kind of experiment: H3-receptor binding assay, guinea pig receptor. Conditions: radioligand [3H]R-α-methyl histamine or [3H]Nα-methyl histamine. The method, then: as §1, §2
The animals weighed 400-600 g. The brain tissue was homogenized with a solution of 50 mM Tris, pH 7.5. The final concentration of tissue in the homogenization buffer was 10% w/v. The homogenates were centrifuged at 1,000×g for 10 min. in order to remove clumps of tissue and debris. The resulting supernatants were then centrifuged at 50,000×g for 20 min. in order to sediment the membranes, which were next washed three times in homogenization buffer (50,000×g for 20 min. each). The membranes were frozen and stored at −70° C. until needed.
All compounds to be tested were dissolved in DMSO and then diluted into the binding buffer (50 mM Tris, pH 7.5) such that the final concentration was 2 μg/ml with 0.1% DMSO. Membranes were then added (400 μg of protein, 5 μg in the case of recombinant human receptor) to the reaction tubes. […] Bound ligand was separated from unbound ligand by filtration, and the amount of radioactive ligand bound to the membranes was quantitated by liquid scintillation spectrometry. […]

The results in this text go back to patent US7846946B2, “Heteroatom-linked substituted piperidines and derivatives thereof useful as histamine H3 antagonists” (Schering Plough Corporation, priority 2005, dated 2010).

T1 sequence (Q9Y5N1 whole entry): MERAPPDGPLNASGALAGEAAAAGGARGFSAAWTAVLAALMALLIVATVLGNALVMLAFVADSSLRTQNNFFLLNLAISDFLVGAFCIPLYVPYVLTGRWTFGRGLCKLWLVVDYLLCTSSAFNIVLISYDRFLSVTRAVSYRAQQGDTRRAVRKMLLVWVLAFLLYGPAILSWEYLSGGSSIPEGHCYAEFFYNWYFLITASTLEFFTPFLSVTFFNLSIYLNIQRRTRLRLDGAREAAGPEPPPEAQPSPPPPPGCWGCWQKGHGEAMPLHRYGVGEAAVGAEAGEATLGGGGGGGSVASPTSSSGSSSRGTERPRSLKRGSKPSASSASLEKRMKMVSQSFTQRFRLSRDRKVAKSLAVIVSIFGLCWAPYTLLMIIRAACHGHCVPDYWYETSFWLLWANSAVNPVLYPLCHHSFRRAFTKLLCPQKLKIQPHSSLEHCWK

Broadly, the Ki is the dissociation constant of the complex between target and ligand, obtained from inhibition or displacement. In the case of `Nc1cc(CN2CCC(C(=O)N3CCC(NCc4ccc(F)cc4F)CC3)CC2)ccn1` [Example 256], the inhibitory constant (Ki) in assay [1] was found to be 0.7 nM.
`Cc1cc(C(=O)NCc2cccnc2NC2CCN(C(=O)C3CCN(Cc4ccnc(N)c4)CC3)CC2)no1` [Example 11] yielded a Ki in assay [2] of 0.2 nM.
